Reference: patent US11013745B2, “Triazolopyrimidine, triazolopyridine compounds, and the composition thereof for treating PRC2-mediated diseases” (SHANGHAI INSTITUTE OF MATERIA MEDICA, CHINESE ACADEMY OF …, priority 2017, dated 2021)
Like-named read-outs stand apart in the source and are kept apart here.

What was measured:
[1] = Oral pharmacokinetics in rats; type: in vivo; conditions: male, SD, plasma, rat, intragastric, 3 mg/kg; for AUC(0-inf): extrapolated to infinity, read-out: AUCINF_obs; for MRT inf: read-out: Average residence time MRTINF_obs; for half-life: read-out: Half life T1/2 (converted); for Cmax: read-out: Peak concentration Cmax
Experimental: 1. Healthy male SD rats were used as test animals, EED226, […]-07 (3 mg/kg) were administered intragastrically, and the drug concentrations in rat plasma were determined by LC/MS/MS method at different time points after drug administration. The pharmacokinetic behavior of the compounds of the present invention in rats was studied, and the pharmacokinetic properties were evaluated. 2. The test animals were healthy adult male SD rats, with 3 rats in each group, purchased from Shanghai Xipuer-Bikai Laboratory Animal Limited Company. 3. Drug preparation: Compounds EED226, […] were dissolved in DMSO/0.5% HPMC (5/95, v/v) for preparation. The compound SL-ZYE-07 was dissolved in 0.5% HPMC (containing 0.5% Tween 80), vortexed, and sonicated to disperse the solid matter uniformly to obtain a pale white suspension. 4, Operation: EED226, […]-07 were administered to rats by intragastric administration (3 mg/kg), 45 μL of blood was taken through the femoral vein at 0.25, 0.5, 1, 2, 4, 8, 24 hour after administration, and centrifuged in a heparinized centrifuge tube for 5 min, and the plasma samples were separated for analysis. The contents of test compounds in rat plasma after intragastric administration of different compounds were determined by Liquid chromatography-mass spectrometry (LC-MS/MS).

Karpas-422 cells = test: Growth inhibition of Karpas-422 cells in a long term (11 days), CellTiter-Glo; type: cell-based, Human; conditions: read-out: Karpas-422 (11 days) IC50
[2] = Liver microsomal stability (mouse); type: in vitro ADME; conditions: for Clearance rate in vivo Clint In Vivo Extpl / Intrinsic clearance rate in vivo Clint In Vitro / Liver clearance rate Clint Hep In Vivo Extpl / Metabolic bioavailability MF %: mouse liver microsomes; for half-life: mouse, liver microsomes, pH 7.4, mouse liver microsomes, read-out: Half life T-half
Pfeiffer cells [3] = test: Growth inhibition of Pfeiffer cells in a long term (14 days), CellTiter-Glo; type: cell-based, Human; conditions: read-out: Pfeiffer (14 days) IC50
Experimental: In a CO2 cell incubator (37° C., 5% CO2), Human diffuse large B-cell lymphoma (DLBCL) cell line, pfeiffer (obtained from ATCC, CRL-2632) were incubated with RPMI 1640 medium (Gibco, purchased from Life Technologies, 22400-089) containing 10% fetal bovine serum (Gibco, purchased from Life Technologies, 10099-141) and 1% antibiotics (penicillin and streptomycin, purchased from Life Technologies, 10378016). […] After seeding the cells, they were placed in a CO2 incubator and allowed to stand for 1 hour. In a 24-well plate containing cells, 2 μL of three-fold gradient of the compounds at 9 different concentrations or DMSO were added to each well, such that the final concentration of the compounds was 0.003-20 μM or 0.3-2000 nM, and the final concentration of DMSO was 0.2%. At day 4, day 7, and day 11 of compound treatment, the fresh medium and compounds were changed, and the cell density of the DMSO control well was diluted to 2*10E5 cells/mL. The cell dilution ratio for other compound wells was the same as that of the DMSO control well. Cell viability was determined by using CellTiter-Glo reagent (purchased from Promega Inc., G7572): cells treated with the compounds for 14 days were transferred to a white 384-well plate (OptiPlate-384, purchased from PerkinElmer, 6007299) at 40 μL/well, an equal volume of CellTiter-Glo reagent was further added. After incubating at room temperature for 10 min, the cold luminescence signal was detected with a multifunctional microplate reader EnVision (PerkinElmer) at a wavelength of 400 to 700 nm. Data were analyzed using GraphPad Prism 5.0 software, and IC50 values were obtained.

Pfeiffer cells [4] = test: Pfeiffer cell growth inhibition in a long term (11 days), CellTiter-Glo; type: cell-based, Human; conditions: read-out: Experiment on Pfeiffer cell growth inhibition in a long term (11 days IC50)
Experimental: Pfeiffer cells in exponential growth phase were seeded in a 24-well plate with a cell density of 1*10E5 cells/mL. Cells were treated on the same day with the compounds at different concentrations. At day 4 and day 7 of compound treatment, fresh media and compounds were changed. After treated with the compounds for 11 days, cell viability was measured using CellTiter-Glo reagent (Promega Corporation). The data was analyzed using GraphPad Prism 5.0 software and GI50 values were obtained.

[5] = Liver microsomal stability (human); type: in vitro ADME; conditions: for Clearance rate in vivo Clint In Vivo Extpl / Intrinsic clearance rate in vivo Clint In Vitro / Liver clearance rate Clint Hep In Vivo Extpl: human liver microsomes; for half-life / bioavailability: human, liver microsomes, pH 7.4, human liver microsomes; for half-life: read-out: Half life T-half; for bioavailability: read-out: Metabolic bioavailability MF %
Experimental: (§1) 1. JANUS and temperature control device was turned on. After being initialized, the pipes were flushed until there was no air bubble in the pipes.
(§2) 2. Preparation of buffers used for the experiment
(§3) Preparation of Tris pH 7.4 buffer (0.1 M): 12.12 g of Tris was dissolved in 1000 mL of H2O, the resulting solution was adjusted to pH 7.4 with 2N HCl, aliquoted at 50 mL per tube, and stored at −20° C.
(§4) Preparation of H2O/0.1% BSA buffer: 200 μL of 25% BSA was added to 50 mL of H2O.
(§5) Preparation of VIVID stock solution: 1 mg of VIVID was dissolved in 1 mL of acetonitrile, aliquoted at 50 μL per tube, and stored at −20° C.
(§6) Preparation of MgCl2 solution (100 mM): 1.016 g of MgCl2 was dissolved in 50 mL Tris pH 7.4 buffer, and aliquoted at 1 mL per tube, and stored at −20° C.
(§7) Preparation of NADPH solution (10 mM): 355 mg of NADPH was dissolved in 42.6 mL of Tris pH 7.4 buffer, aliquoted at 1.8 mL per tube, and stored at −20° C.
(§8) Preparation of Blank control: 7.937 mL of Tris, 163 μL of RLM, 450 μL of MgCl2 solution, 450 μL of NADPH solution and 9 mL of methanol were mixed uniformly, aliquoted at 1 mL per tube, and stored at −20° C.
(§9) 3. Preparation of Compound Working Solution
(§10) Dilution step 1:10 μL of compound stock solution was added to 90 μL of DMSO=1 mM stock solution.
(§11) Dilution step 2: 2 μL of 1 mM stock solution was added to 1 mL of H2O/0.1%6 BSA buffer=[…] working solution.
(§12) Dilution step 3: 245 μL of the working solution was added to a 96-well compound plate and added with 5 μL of VIVID stock solution.
(§13) The 96-well compound plate was shaken on a shaker for 5 min.
(§14) 4. The STM in the JANUS in the computer was open to run the EXCEL file, and the JANUS program was operated and run by following the instructions in the EXCEL file.
(§15) 5. After the JANUS program was finished, acetonitrile/water 50:50 (V/V) was added to column 20 of the 384-well black plate, and blank control was added to column 21 of the 384-well black plate.
(§16) 6. the plate (420 nm-465 nm) was read on a microplate reader to determine the VIVID fluorescence intensity.
(§17) 7. After the plate was sealed, shaken and centrifuged, the sample plate was subjected to the LC/MS instrument for sample analysis.
(§18) A profile of the logarithmic value of the remaining rate of the drug in the incubation system versus the incubation time was plotted, and the slope k was obtained by linear regression. The intrinsic clearance rate in vivo (Clint, mL/min/g) value, the clearance rate in vivo (Cl, mL)/min), liver clearance (Clhep, mL/min) and metabolic bioavailability (% MF) were predicted according to the following equations: […]

SU-DHL-4 cells = test: Growth inhibition of SU-DHL-4 cells in a long term (11 days), CellTiter-Glo; type: cell-based, Human; conditions: read-out: SU-DHL-4 (11 days) IC50
[6] = Liver microsomal stability (rat); type: in vitro ADME; conditions: for Clearance rate in vivo Clint In Vivo Extpl / Intrinsic clearance rate in vivo Clint In Vitro / Liver clearance rate Clint Hep In Vivo Extpl / Metabolic bioavailability MF %: rat liver microsomes; for half-life: rat, liver microsomes, pH 7.4, rat liver microsomes, read-out: Half life T-half
Experimental: as §1, §2, §3, §4, §5, §6, §7, §8, §9, §10, §11, §12, §13, §14, §15, §16, §17, §18

PRC2 enzyme = PRC2 enzyme (Homo sapiens (Human), UniProt O75530); test: PRC2 enzyme activity, TR-FRET method; type: biochemical
PRC2 enzyme, sequence (O75530 whole entry): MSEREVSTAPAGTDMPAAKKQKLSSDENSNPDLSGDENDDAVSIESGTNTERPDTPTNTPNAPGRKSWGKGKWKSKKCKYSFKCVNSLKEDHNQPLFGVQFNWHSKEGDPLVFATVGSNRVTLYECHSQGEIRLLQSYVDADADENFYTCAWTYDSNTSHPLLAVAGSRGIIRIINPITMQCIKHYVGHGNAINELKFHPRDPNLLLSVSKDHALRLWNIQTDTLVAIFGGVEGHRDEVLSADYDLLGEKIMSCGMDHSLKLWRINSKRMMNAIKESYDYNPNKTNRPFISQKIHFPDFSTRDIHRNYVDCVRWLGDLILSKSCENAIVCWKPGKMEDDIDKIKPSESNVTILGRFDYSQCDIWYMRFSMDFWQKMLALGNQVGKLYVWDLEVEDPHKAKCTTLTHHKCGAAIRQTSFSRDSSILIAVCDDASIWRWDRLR
PRC2 enzyme, sequence (Q15910 whole entry partner): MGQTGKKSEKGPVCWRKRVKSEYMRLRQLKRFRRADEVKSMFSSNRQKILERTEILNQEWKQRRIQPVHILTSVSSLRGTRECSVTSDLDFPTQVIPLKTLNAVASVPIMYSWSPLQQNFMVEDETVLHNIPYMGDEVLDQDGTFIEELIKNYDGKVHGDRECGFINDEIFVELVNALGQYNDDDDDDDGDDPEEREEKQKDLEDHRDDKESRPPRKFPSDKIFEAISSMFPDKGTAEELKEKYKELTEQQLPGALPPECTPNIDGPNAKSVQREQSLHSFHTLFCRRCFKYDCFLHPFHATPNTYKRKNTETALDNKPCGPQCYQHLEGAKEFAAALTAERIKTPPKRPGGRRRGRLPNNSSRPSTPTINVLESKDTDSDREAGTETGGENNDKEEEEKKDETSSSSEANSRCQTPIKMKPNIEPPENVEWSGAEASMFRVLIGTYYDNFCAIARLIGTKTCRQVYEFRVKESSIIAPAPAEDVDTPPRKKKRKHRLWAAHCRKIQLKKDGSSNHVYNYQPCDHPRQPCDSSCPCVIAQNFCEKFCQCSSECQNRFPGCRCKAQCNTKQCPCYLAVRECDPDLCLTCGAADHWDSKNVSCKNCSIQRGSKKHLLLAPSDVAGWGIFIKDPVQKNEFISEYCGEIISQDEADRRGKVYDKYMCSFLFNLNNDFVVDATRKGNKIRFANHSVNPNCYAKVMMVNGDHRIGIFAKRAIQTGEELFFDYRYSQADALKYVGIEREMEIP
PRC2 enzyme, sequence (Q15022 whole entry partner): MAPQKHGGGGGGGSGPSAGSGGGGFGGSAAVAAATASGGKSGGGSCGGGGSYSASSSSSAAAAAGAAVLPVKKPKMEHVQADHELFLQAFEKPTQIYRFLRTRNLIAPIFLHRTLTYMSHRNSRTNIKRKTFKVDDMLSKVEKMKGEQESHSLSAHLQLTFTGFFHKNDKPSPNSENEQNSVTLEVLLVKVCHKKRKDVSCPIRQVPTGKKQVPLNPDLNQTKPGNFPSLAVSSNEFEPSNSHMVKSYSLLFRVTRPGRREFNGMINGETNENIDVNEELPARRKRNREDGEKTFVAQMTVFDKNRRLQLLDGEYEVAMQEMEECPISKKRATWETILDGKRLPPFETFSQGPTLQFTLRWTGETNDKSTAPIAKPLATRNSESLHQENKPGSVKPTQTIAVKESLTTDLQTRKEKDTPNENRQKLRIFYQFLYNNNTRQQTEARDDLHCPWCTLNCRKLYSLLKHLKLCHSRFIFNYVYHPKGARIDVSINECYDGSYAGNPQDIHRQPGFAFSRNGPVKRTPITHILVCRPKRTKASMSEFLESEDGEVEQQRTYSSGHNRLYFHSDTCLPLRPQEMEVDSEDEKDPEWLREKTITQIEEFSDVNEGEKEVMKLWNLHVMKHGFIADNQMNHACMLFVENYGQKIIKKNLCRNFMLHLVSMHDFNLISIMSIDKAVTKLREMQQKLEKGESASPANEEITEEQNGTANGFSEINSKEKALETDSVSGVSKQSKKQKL
Procedure, shortened: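 Enzyme preincubated with compound 30 min at room temperature; reaction started with biotin-labeled histone H3 peptide and SAM, run 4 h at room temperature.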

[7] = Homo sapiens, 264 h, Karpas-422, 11 days
[8] = Homo sapiens, 264 h, SU-DHL-4, 11 days

| SMILES | AUC(0-t) [1] | AUC(0-inf) [1] | MRT inf [1] | half-life [1] | Cmax [1] | IC50 (Karpas-422 cells; [7]) | Clearance rate in vivo Clint In Vivo Extpl [2] | Intrinsic clearance rate in vivo Clint In Vitro [2] | Liver clearance rate Clint Hep In Vivo Extpl [2] | Metabolic bioavailability MF % [2] | half-life [2] | IC50 (Pfeiffer cells [3]; Homo sapiens, 336 h, 14 days) | IC50 (Pfeiffer cells [4]; Homo sapiens, 264 h, 11 days) | Clearance rate in vivo Clint In Vivo Extpl [5] | Intrinsic clearance rate in vivo Clint In Vitro [5] | Liver clearance rate Clint Hep In Vivo Extpl [5] | half-life [5] | bioavailability [5] | IC50 (SU-DHL-4 cells; [8]) | IC50 (PRC2 enzyme) | other results |
| --- | --- | --- | --- | --- | --- | --- | --- | --- | --- | --- | --- | --- | --- | --- | --- | --- | --- | --- | --- | --- | --- |
| CC(=O)N1CC=C(c2cnc(NCc3c(F)ccc4c3CCO4)n3cnnc23)CC1 [E-Y15] | – | – | – | – | – | 7 nM | 5.51 mL/min | 81.6 mL/min/gprot | 1.94 mL/min | 35.3% | 0.428 h | 0.7 nM | 1.9 nM | 1280 mL/min | 16.7 mL/min/gprot | 691 mL/min | 2.1 h | 54% | 3 nM | 5.6 nM | Clearance rate in vivo Clint In Vivo Extpl [6]: 64.7 mL/min; Intrinsic clearance rate in vivo Clint In Vitro [6]: 144 mL/min/gprot; Liver clearance rate Clint Hep In Vivo Extpl [6]: 15.3 mL/min; Metabolic bioavailability MF % [6]: 23.6%; half-life [6]: 0.243 h |
| CS(=O)(=O)c1ccc(-c2cnc(NCc3ccco3)n3cnnc23)cc1 [EED226, reference compound] | 886 ± 336 ng·h/mL | 915 ± 316 ng·h/mL | 2.55 ± 1.08 h | 1.63 ± 0.411 h | 464 ± 429 ng/mL | – | – | – | – | – | – | – | – | – | – | – | – | – | – | 104 nM | IC50 (Karpas-422 cells; Homo sapiens, KARPAS-422, 264 h): 167 nM; IC50 (Pfeiffer cells [3]; Homo sapiens, 336 h): 44 nM; IC50 (Pfeiffer cells [4]; Homo sapiens, 264 h): 52 nM; IC50 (SU-DHL-4 cells; Homo sapiens, SU-DHL-4, 264 h): 95 nM |

Continued, in another order:

| AUC(0-t) [1] | AUC(0-inf) [1] | MRT inf [1] | half-life [1] | Cmax [1] | IC50 (Karpas-422 cells; [7]) | Clearance rate in vivo Clint In Vivo Extpl [2] | Intrinsic clearance rate in vivo Clint In Vitro [2] | Liver clearance rate Clint Hep In Vivo Extpl [2] | Metabolic bioavailability MF % [2] | half-life [2] | IC50 (Pfeiffer cells [3]; Homo sapiens, 336 h, 14 days) | IC50 (Pfeiffer cells [4]; Homo sapiens, 264 h, 11 days) | Clearance rate in vivo Clint In Vivo Extpl [5] | Intrinsic clearance rate in vivo Clint In Vitro [5] | Liver clearance rate Clint Hep In Vivo Extpl [5] | half-life [5] | bioavailability [5] | IC50 (SU-DHL-4 cells; [8]) | IC50 (PRC2 enzyme) | SMILES | other results |
| --- | --- | --- | --- | --- | --- | --- | --- | --- | --- | --- | --- | --- | --- | --- | --- | --- | --- | --- | --- | --- | --- |
| 2200 ± 237 ng·h/mL | 2200 ± 239 ng·h/mL | 5.46 ± 0.342 h | 2.32 ± 0.268 h | 302 ± 6.4 ng/mL | 19 nM | 1.98 mL/min | 29.4 mL/min/gprot | 1.19 mL/min | 60.2% | 1.19 h | 4 nM | 8 nM | 1613 mL/min | 21.1 mL/min/gprot | 777 mL/min | 1.66 h | 48.2% | 4 nM | – | Fc1ccc2c(c1CNc1ncc(C3=CCOCC3)c3nncn13)CCO2 [E-Y1] | Clearance rate in vivo Clint In Vivo Extpl [6]: 15.9 mL/min; Intrinsic clearance rate in vivo Clint In Vitro [6]: 35.2 mL/min/gprot; Liver clearance rate Clint Hep In Vivo Extpl [6]: 8.85 mL/min; Metabolic bioavailability MF % [6]: 55.8%; half-life [6]: 0.993 h |
| 891 ± 164 ng·h/mL | 910 ± 174 ng·h/mL | 4.71 ± 0.896 h | 3.77 ± 1.69 h | 155 ± 34.8 ng/mL | 25 nM | – | – | – | – | – | 1 nM | – | – | – | – | – | – | 5 nM | 7.3 nM | Fc1ccc2c(c1CNc1ncc(C3=CCCOCC3)c3nncn13)CCO2 [SL-ZYE-07] | – |
| – | – | – | – | – | – | – | – | – | – | – | – | – | – | – | – | – | – | – | 7.8 nM | CC1C=C(c2cnc(NCc3c(F)ccc4c3CCO4)n3cnnc23)CCO1 (centres unmarked) [SL-ZYE-197] | IC50 (Karpas-422 cells; Karpas-422, 11 days): 16 nM; IC50 (Pfeiffer cells [3]; 14 days): 5 nM; IC50 (Pfeiffer cells [4]; 11 days): 10 nM; IC50 (SU-DHL-4 cells; SU-DHL-4, 11 days): 56 nM |
